Laboratory results from PMC8962335, “In Vivo Evaluation of ECP Peptide Analogues for the Treatment of Acinetobacter baumannii Infection” (Biomedicines, 2022).
Values after ≈ are worked out from the molar mass of the structure shown. Values joined by “and” are separate entries in the source; they are usually repeats but may differ in a detail not shown here. Identical values can stand only once. Where a SMILES comes first, the peptide text is derived from it. Where no end group is shown, it is not given here.

How the values were obtained:
P. aeruginosa = format: cell-based, Pseudomonas aeruginosa; details: 24 h
Text: (§1) A. baumannii strain (CECT 452, Valencia, Spain, ATCC 15308, Manassas, VA, USA) and Pseudomonas aeruginosa (P. aeruginosa) strain (CECT 4122, Valencia, Spain, ATCC 15692, Manassas, VA, USA) were from the Colección Española de Cultivos Tipo (CECT, Valencia, Spain). The Escherichia coli (E. coli) BL21 (DE3) strain was from Novagen (Darmstadt, Germany). MRC-5 cells were from the American Type Culture Collection (ATCC, Manassas, VA, USA) and HEK293T cell line was kindly provided by Dr. Raquel Pequerul (UAB, Barcelona, Spain).
(§2) The MIC is defined as the lowest concentration of one reagent to prevent visible growth of bacteria. The MIC determination was followed by the protocol described previously. Briefly, bacteria in exponential growth were used to prepare a suspension in MHB with the approximate number of 5 × 10^5 CFU/mL. Next, an aliquot of 90 μL of bacteria suspension was added into each well of the 96-well polypropylene plate. Immediately, 10 μL of peptide diluted by 0.01% acetic acid was added to the corresponding well to have a final concentration ranging from 20 to 0.16 μM. The plate was incubated for 24 h at 37 °C, 100 rpm. The presence or absence of bacterial growth was visually inspected and confirmed by reading OD600 with Tecan Microplate Reader Spark®. Each test was performed in triplicate.

[1] = human serum in vitro; cited from earlier work
MRC-5 cells = experiment: Cytotoxicity assay (MTT); details: all the assayed time range (up to 48 h), highest concentration 100 μM
Procedure: (§3) Cytotoxicity was measured for the MRC-5 and HEK293T cell lines by MTT assay. Cells were grown in 5% CO2 at 37 °C with MRC-5 cell line maintained in MEMα and HEK293T in DMEM/F-12 media, both of which were supplemented with 10% FBS. The cells were passaged in 25 cm^2 or 75 cm^2 flasks to prepare 96-well plates with 3 × 10^4 cells/well, which were incubated overnight. Next, serial dilutions of ECPep-D and ECPep-2D-Orn were added to have a final concentration ranging from 100 to 0.78 μM (375 μg/mL to 3 μg/mL) and colistin was added at final concentrations ranging from 300 to 2.34 μM (380 μg/mL to 3 μg/mL) in corresponding wells. After incubation to the specified time, the medium of the plate was replaced by fresh medium containing 0.5 mg/mL MTT solution and the mixture was incubated for 2.5 h in 5% CO2 at 37 °C. The medium was then removed, and formazan was dissolved by adding DMSO. The optical density (OD) was recorded by using a Victor^3 plate reader (PerkinElmer, Waltham, MA, USA) set at 540 nm and 620 nm as a reference. Each test was performed in triplicate.

in vitro = details: human, MRC-5 cells; for CC50 at 24 h: LD50 (MRC-5) 24 h; for CC50 at 48 h: LD50 (MRC-5) 48 h
Procedure: as §3

[2] = Tolerance study of peptides in mouse (Up and Down, main study, extra groups); format: in vivo, Balb/c mice; details: for clinical score: 30 mg/kg i.p., within 30 min; for clinical score / MTD: Up and Down assay; for MTD: in vivo, ip, one single dose, i.p., 1 mouse per peptide, read-out: maximum tolerated dose; for clinical signs after a single dose (main study): single i.p. dose: 20 mg/kg ECPep-D, 25 mg/kg ECPep-2D-Orn, all mice
Procedure: Initially, the “Up and Down” protocol was followed to determine the maximum lethal dose with some modifications. Briefly, one mouse was taken per peptide and increasing doses of the peptide were injected through the intraperitoneal (i.p.) route every 48 h, and the concentration at which the mouse had severe clinical symptoms or died was determined (Figure 1a).
Figure 1 Toxicity study plans. (a) “Up and Down” protocol: 1 mouse was injected, starting at a very low peptide dose and observed at 48 h intervals. […] (b) Main study: mice were divided into groups randomly; 1 as well as 2 peptide doses below the lethal dose from the “Up and Down” assay was given two times per day for 3 days (the protocol was readjusted in case of emergency owing to ethical principles, as detailed in the results section and Table S1). An extra group is for the vehicle. (c) Last study: Peptide was tested in smaller groups at lower doses depending on the results obtained from the main study.
Once the lethal concentration had been determined, we continued with the “main study” (Figure 1b). Two groups of 6 female mice were used at two different concentrations of both peptides, one and two concentrations below the maximum considered either by lethality or by clinical signs. The toxicity was further verified by mimicking the doses and frequency foreseen in the previous study, i.e., two doses per day for 3 days as the initial plan.
There was also an extra group to confirm the non-toxicity of the vehicle. For extra caution, some additional doses were applied to confirm the safety dose in case of repeated injections (Figure 1c).
Body weight (BW, g) of mice was measured before every injection and % BW gain was calculated. % BW gain = (new BW − initial BW)/initial BW × 100%(1)
In the tolerance study, for the “Up and Down” assay, the BW was recorded twice on the administration day and, for the “main study”, it was measured every day at the first 3 days and then at some selected days until the 16th day, when the monitoring was finished. In both efficacy assays, BW was recorded once a day but on the first day (Day 0), a second measure was conducted at 8 h.
The clinical symptoms were assessed through a scoring system, which contains 9 items, including changes of body weight, behavior, breathing, skin, hair, eyes and gastrointestinal status (see full list at Table S2). The score for each item increases from 0 to 3 according to the severe levels, up to a total of 27. During the study, when an animal obtained a score of 3 in any of the parameters assessed with a maximum score of 3, euthanasia was carried out to apply the endpoint criteria. Euthanasia would also be practiced if the sum of several parameters that are less than 3 separately was ≥ 7.
In the tolerance study, the clinical score was recorded at about 10 min, 30 min, 1 h, 2 h, 4 h, 7 h, 24 h and 48 h after injecting the peptides for the “Up and Down” assay and in the main study, the clinical score were only monitored when the BW was measured. During the efficacy assay, the clinical score was recorded every 2–3 h on Day 0 and then twice every day.

HEK293T cells = details: 48 h
Procedure: as §3

A. baumannii = format: cell-based, Acinetobacter baumannii; details: 24 h
Text: as §1, §2

E. coli = format: cell-based, Escherichia coli; details: 24 h
Text: as §1, §2

Compound	MIC P. aeruginosa (P. aeruginosa) [µM]	half-life time in human serum [1] [h]	toxicity for MRC-5 at the highest tested concentration (MRC-5 cells)	CC50 at 24 h (in vitro)	CC50 at 48 h (in vitro)	clinical score [2]	MTD [2] [mg/kg]	clinical signs after a single dose (main study) [2]	IC50 (HEK293T cells) [µM]	MIC A. baumannii (A. baumannii) [µM]	MIC E. coli (E. coli) [µM]	CC50 at 4 h (in vitro; LD50 (MRC-5) 4 h)
CC[C@H](C)[C@H](NC(=O)[C@H](C)NC(=O)[C@H](CCCN)NC(=O)[C@H](CCSC)NC(=O)[C@H](C)NC(=O)[C@@H](NC(=O)[C@@H](NC(=O)[C@H](CCCN)NC(=O)[C@@H]1CCCN1C(=O)[C@H](CO)NC(=O)[C@@H](NC(=O)[C@H](Cc1c[nH]cn1)NC(=O)[C@H](CCC(N)=O)NC(=O)[C@@H](NC(=O)[C@H](C)NC(=O)[C@H](Cc1ccccc1)NC(=O)[C@H](Cc1c[nH]c2ccccc12)NC(=O)[C@H](CCC(N)=O)NC(=O)[C@H](C)NC(=O)[C@H](CCCN)NC(=O)[C@@H](NC(=O)[C@H](Cc1ccccc1)NC(=O)[C@H]1CCCN1C(=O)[C@@H](N)CCCN)[C@@H](C)O)[C@@H](C)CC)[C@@H](C)CC)[C@@H](C)O)[C@@H](C)CC)C(=O)N[C@@H](CC(N)=O)C(=O)N[C@@H](CC(N)=O)C(=O)N[C@@H](Cc1ccc(O)cc1)C(=O)N[C@@H](CCCN)C(=O)N[C@@H](Cc1c[nH]c2ccccc12)C(=O)N[C@@H](CCCN)C(N)=O [ECPep-2D-Orn] (HELM PEPTIDE1{[Orn].[dP].F.T.[Orn].A.Q.W.F.A.I.Q.H.I.S.P.[Orn].T.I.A.M.[Orn].A.I.N.N.Y.[Orn].W.[Orn].[am]}$$$$V2.0)	>20	> 8	no toxicity was observed	> 100 µM and > 351 µg/mL	> 100 µM and > 351 µg/mL	over 6	25	did not cause any obvious clinical signs	> 100	5 (≈ 17.5 µg/mL)	>20	
CC[C@@H](C)[C@@H](NC(=O)[C@@H](C)NC(=O)[C@@H](CCCNC(=N)N)NC(=O)[C@@H](CCSC)NC(=O)[C@@H](C)NC(=O)[C@H](NC(=O)[C@H](NC(=O)[C@@H](CCCNC(=N)N)NC(=O)[C@H]1CCCN1C(=O)[C@@H](CO)NC(=O)[C@H](NC(=O)[C@@H](Cc1c[nH]cn1)NC(=O)[C@@H](CCC(N)=O)NC(=O)[C@H](NC(=O)[C@@H](C)NC(=O)[C@@H](Cc1ccccc1)NC(=O)[C@@H](Cc1c[nH]c2ccccc12)NC(=O)[C@@H](CCC(N)=O)NC(=O)[C@@H](C)NC(=O)[C@@H](CCCNC(=N)N)NC(=O)[C@H](NC(=O)[C@@H](Cc1ccccc1)NC(=O)[C@H]1CCCN1C(=O)[C@H](N)CCCNC(=N)N)[C@H](C)O)[C@H](C)CC)[C@H](C)CC)[C@H](C)O)[C@H](C)CC)C(=O)N[C@H](CC(N)=O)C(=O)N[C@H](CC(N)=O)C(=O)N[C@H](Cc1ccc(O)cc1)C(=O)N[C@H](CCCNC(=N)N)C(=O)N[C@H](Cc1c[nH]c2ccccc12)C(=O)N[C@H](CCCNC(=N)N)C(N)=O [ECPep-D] (HELM PEPTIDE1{[dR].[dP].[dF].[dT].[dR].[dA].[dQ].[dW].[dF].[dA].[dI].[dQ].[dH].[dI].[dS].[dP].[dR].[dT].[dI].[dA].[dM].[dR].[dA].[dI].[dN].[dN].[dY].[dR].[dW].[dR].[am]}$$$$V2.0)	10 (≈ 37.6 µg/mL)			164 ± 33.2 µg/mL (≈ 43.5 µM)	88.4 ± 17.8 µg/mL (≈ 23.5 µM)	over 6	20	did not cause any obvious clinical signs		10 (≈ 37.6 µg/mL)	10 (≈ 37.6 µg/mL)	
RPFTRAQWFAIQHISPRTIAMRAINNYRWR-NH2 [ECPep-L]	10	0.2								10	10	276 µM and > 1000 µg/mL
